Assay results as given in BindingDB's records for doi:10.1016/j.bmcl.2010.05.078 (University of Arizona, 2010).

How the values were obtained:
[1] = Agonist activity at mu opioid receptor in guinea pig ileum assessed as inhibition of electrically-stimulated muscle contraction
[2] = target: Melanocortin receptor 4 (Homo sapiens, UniProt P32245); test: Displacement of Eu-NDP-alphaMSH from human MC4 receptor expressed in human HEK293 cells
Melanocortin receptor 4, sequence (P32245 whole entry): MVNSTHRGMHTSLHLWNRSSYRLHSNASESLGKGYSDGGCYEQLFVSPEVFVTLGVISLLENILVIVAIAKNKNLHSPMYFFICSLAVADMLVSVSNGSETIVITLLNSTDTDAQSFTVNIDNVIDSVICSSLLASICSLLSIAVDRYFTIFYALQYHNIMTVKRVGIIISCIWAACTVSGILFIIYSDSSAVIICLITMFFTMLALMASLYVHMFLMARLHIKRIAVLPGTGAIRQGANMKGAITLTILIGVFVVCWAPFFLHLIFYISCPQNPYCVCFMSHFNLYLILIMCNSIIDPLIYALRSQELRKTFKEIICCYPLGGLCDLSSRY

Row | Structure (SMILES) | IC50 [1] [nM] | IC50 [2] [nM]
1 | Cc1cc(O)cc(C)c1C[C@H](N)C(=O)N1CC(=O)N[C@@H](Cc2cnc[nH]2)C(=O)N[C@H](Cc2ccccc2)C(=O)N[C@@H](CCCN=C(N)N)C(=O)N[C@@H](Cc2c[nH]c3ccccc23)C(=O)N[C@H](C(=O)N[C@@H](CC(=O)O)C(=O)N[C@@H](Cc2ccccc2)C(N)=O)CSSC[C@@H](N)C1=O [(S)-3-((4R,7S,10S,13R,16S,22S)-16-((1H-imidazol-5-yl)methyl)-7-((1H-indol-3-yl)methyl)-22-amino-20-((S)-2-amino-3-(4-hydroxy-2,6-dimethylphenyl)propanoyl)-13-benzyl-10-(3-guanidinopropyl)-6,9,12,15,18,21-hexaoxo-1,2-dithia-5,8,11,14,17,20-hexaazacyclotricosane-4-carboxamido)-4-((S)-1-amino-1-oxo-3-phenylpropan-2-ylamino)-4-oxobutanoic acid] | 190 | –
2 | CCCC[C@H](NC(=O)[C@H](Cc1c[nH]c2ccccc12)NC(=O)[C@H](CCCN=C(N)N)NC(=O)[C@@H](Cc1ccc2ccccc2c1)NC(=O)[C@H](Cc1cnc[nH]1)NC(=O)[C@H](Cc1ccccc1)NC(=O)[C@@H](C)NC(=O)[C@@H](N)Cc1ccc(O)cc1)C(=O)N[C@@H](CC(=O)O)C(=O)N[C@@H](Cc1ccccc1)C(N)=O [(3S,6S,9S,12S,15R,18S,21S,24R,27S)-18-((1H-imidazol-5-yl)methyl)-9-((1H-indol-3-yl)methyl)-27-amino-3-((S)-1-amino-1-oxo-3-phenylpropan-2-ylcarbamoyl)-21-benzyl-6-butyl-12-(3-guanidinopropyl)-28-(4-hydroxyphenyl)-24-methyl-15-(naphthalen-2-ylmethyl)-5,8,11,14,17,20,23,26-octaoxo-4,7,10,13,16,19,22,25-octaazaoctacosan-1-oic acid] | – | 631
